Experimental data from patent US6455554B1, “Oxopyridinyl pharmaceutical compositions and methods for use” (Targacept, Inc., priority 1999, dated 2002).
pEC50, pKi: −log10 of the molar value. Where “and” joins values, the source holds several entries; their conditions need not be identical. Equal entries are not always repeated.

Assays:
CNS nicotinic receptors = CNS nicotinic receptors (Rattus norvegicus, UniProt P09483+P12390); test: Determination of binding to relevant receptor sites; settings: inhibition constants calculated from IC50 values by the method of Cheng et al.
Procedure: Determination of Binding to Relevant Receptor Sites
Binding of the compounds to relevant receptor sites was determined in accordance with the techniques described in U.S. Pat. No. 5,597,919 to Dull et al. Inhibition constants (Ki values), reported in nM, were calculated from the IC50 values using the method of Cheng et al., Biochem, Pharmacol. 22:3099 (1973).

[1] = system: nicotinic cholinergic receptors that modulate dopamine release; test: Determination of dopamine release; format: cell-based
Procedure: Determination of Dopamine Release
Dopamine release was measured using the techniques described in U.S. Pat. No. 5,597,919 to Dull et al. Release is expressed as a percentage of release obtained with a concentration of (S)-(−)-nicotine resulting in maximal effects. Reported EC50 values are expressed in nM, and Emax values represent the amount released relative to (S)-(−)-nicotine on a percentage basis.

Rat brain synaptosomes = test: Neurotransmitter release from brain synaptosomes; format: cell-based; settings: 10 M of ligand, percentage of release with 10 M (S)-(-)-nicotine or 300 MTMA
Procedure: Neurotransmitter Release from Brain Synaotosomes
Neurotransmitter release was measured using techniques similar to those previously published (Bencherif M, et al.:. JPET 279: 1413-1421, 1996).
Rat brain synaptosomes were prepared as follows: Female Sprague Dawley rats (100-200 g) were killed by decapitation after anesthesia with 70% CO2. Brains are dissected, and hippocampus, striatum, and thalamus isolated, and homogenized in 0.32 M sucrose containing 5 mM HEPES pH 7.4 using a glass/glass homogenizer. The tissue was then centrifuged for 1000×g for 10 minutes and the pellet discarded. The supernatant was centrifuged at 12000×g for 20 minutes. The resultant pellet was re-suspended in perfusion buffer (128 mM NaCl, 1.2 mM KH2PO4, 2.4 mM KCl, 3.2 mM CaCl2, 1.2 mM MgSO4, 25 mM HEPES, 1 mM Ascorbic acid, 0.01 mM pargyline HCl and 10 mM glucose pH 7.4) and centrifuged for 15 minutes at 25000×g. The final pellet was resuspended in perfusion buffer and placed in a water bath (37° C.) for 10 minutes. Radiolabeled neurotransmitter is added (30 L ^3H DA, 20 L ^3H NE, 10 L ^3H glutamate) to achieve a final concentration of 100 nM, vortexed and placed in a water bath for additional 10 minutes. Tissue-loaded filters is placed onto 11-mm diameter Gelman A/E filters on an open-air support. After a 10-minute wash period, fractions are collected to establish the basal release and agonist applied in the perfusion stream. Further fractions were collected after agonist application to re-establish the baseline. The perfusate was collected directly into scintillation vials and released radioactivity was quantified using conventional liquid scintillation techniques. Release of neurotransmitter was determined in the presence of […] of various ligands and was expressed as a percentage of release obtained with a concentration of 10 M (S)-(−)-nicotine or 300 MTMA resulting in maximal effects.

nicotinic receptors = test: Determination of rubidium ion release (rubidium ion flux assay); format: cell-based
Procedure: Determination of Rubidium Ion Release
Rubidium release was measured using the techniques described in Bencherif et al., JPET, 279: 1413-1421 (1996). Reported EC50 values are expressed in nM, and Emax values represent the amount of rubidium ion released relative to 300 uM tetramethylammonium ion, on a percentage basis.

[2] = biological target: T1, muscle-type nicotinic acetylcholine receptors (Homo sapiens, UniProt P02708+P07510+Q07001); test: Determination of interaction with muscle receptors; format: cell-based; parameters: Emax: dose or concentration left out as unconfirmed; settings: for Emax: read-out: Emax at muscle-type receptors
T1 construct: cell preparations expressing muscle-type nicotinic acetylcholine receptors; endogenous in cells
From the text: The compounds of the present invention, when employed in effective amounts in accordance with the method of the present invention, lack the ability to elicit activation of nicotinic receptors of human muscle to any significant degree. […] Generally, typical preferred compounds useful in carrying the present invention activate isotopic rubidium ion flux by less than 10 percent, often by less than 5 percent, of that maximally provided by S(−) nicotine.
Determination of Interaction with Muscle Receptors
(§1) The determination of the interaction of the compounds with muscle receptors was carried out in accordance with the techniques described in U.S. Pat. No. 5,597,919 to Dull et al. The maximal activation for individual compounds (Emax) was determined as a percentage of the maximal activation induced by (S)-(−)-nicotine. Reported Emax values represent the amount released relative to (S)-(−)-nicotine on a percentage basis.

[3] = system: ganglionic-type nicotinic acetylcholine receptors; test: Determination of interaction with ganglion receptors; format: cell-based; settings: at a concentration of 100 uM; relative to (S)-(-)-nicotine
From the text: By this is meant that a particular dose of compound resulting in prevention and/or treatment of a CNS disorder, is essentially ineffective in eliciting activation of certain ganglionic-type nicotinic receptors. […] As such, such compounds have poor ability to cause isotopic rubidium ion flux through nicotinic receptors in cell preparations derived from the adrenal gland. Generally, typical preferred compounds useful in carrying out the present invention activate isotopic rubidium ion flux by less than 10 percent, often by less than 5 percent, of that maximally provided by S(−) nicotine.
Determination of Interaction with Ganglion Receptors
as §1, with “ganglionic” for “muscle”

[4] = amount released relative to (S)-(-)-nicotine
[5] = rubidium ion released relative to 300 uM tetramethylammonium ion
[6] = at a concentration of 100 uM, relative to (S)-(-)-nicotine

T1 sequence (P02708 21-457): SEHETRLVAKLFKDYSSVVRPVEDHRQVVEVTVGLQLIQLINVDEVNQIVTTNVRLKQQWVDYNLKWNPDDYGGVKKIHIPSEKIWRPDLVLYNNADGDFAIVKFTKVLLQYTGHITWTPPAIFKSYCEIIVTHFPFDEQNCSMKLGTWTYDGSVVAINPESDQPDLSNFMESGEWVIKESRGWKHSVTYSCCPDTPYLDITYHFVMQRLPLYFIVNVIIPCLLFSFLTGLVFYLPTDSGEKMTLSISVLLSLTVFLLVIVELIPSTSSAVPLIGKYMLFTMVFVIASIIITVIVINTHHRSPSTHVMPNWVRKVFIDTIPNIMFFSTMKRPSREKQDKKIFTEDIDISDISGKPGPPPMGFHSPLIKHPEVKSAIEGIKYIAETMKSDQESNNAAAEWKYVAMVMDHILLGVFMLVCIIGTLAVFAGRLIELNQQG
T1 sequence (P11230 24-501 partner): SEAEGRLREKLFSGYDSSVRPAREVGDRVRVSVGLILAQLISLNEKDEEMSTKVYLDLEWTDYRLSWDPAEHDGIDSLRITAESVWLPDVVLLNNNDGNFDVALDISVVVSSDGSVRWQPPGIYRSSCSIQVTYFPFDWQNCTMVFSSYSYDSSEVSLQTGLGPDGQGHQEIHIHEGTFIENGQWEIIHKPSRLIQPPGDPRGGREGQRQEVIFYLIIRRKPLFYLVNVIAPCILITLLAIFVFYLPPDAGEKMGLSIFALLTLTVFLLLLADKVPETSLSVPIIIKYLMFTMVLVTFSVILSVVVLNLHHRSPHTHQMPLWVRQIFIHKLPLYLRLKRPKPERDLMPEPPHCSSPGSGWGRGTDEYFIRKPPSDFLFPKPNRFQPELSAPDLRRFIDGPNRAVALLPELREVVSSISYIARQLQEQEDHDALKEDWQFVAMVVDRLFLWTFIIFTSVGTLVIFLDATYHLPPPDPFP
T1 sequence (Q07001 22-517): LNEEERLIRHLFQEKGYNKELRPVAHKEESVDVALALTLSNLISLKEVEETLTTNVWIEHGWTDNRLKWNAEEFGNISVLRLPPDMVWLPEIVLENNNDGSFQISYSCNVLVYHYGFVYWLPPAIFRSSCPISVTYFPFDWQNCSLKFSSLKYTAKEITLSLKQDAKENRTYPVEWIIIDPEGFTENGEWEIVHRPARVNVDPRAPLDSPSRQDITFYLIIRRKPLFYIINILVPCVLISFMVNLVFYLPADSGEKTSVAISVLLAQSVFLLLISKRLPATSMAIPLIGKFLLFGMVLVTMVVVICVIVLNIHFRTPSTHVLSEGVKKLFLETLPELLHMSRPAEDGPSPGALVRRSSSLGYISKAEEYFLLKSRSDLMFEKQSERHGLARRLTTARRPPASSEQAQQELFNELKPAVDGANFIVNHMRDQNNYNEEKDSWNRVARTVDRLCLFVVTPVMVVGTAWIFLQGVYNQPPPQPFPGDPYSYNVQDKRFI
T1 sequence (P07510 23-517): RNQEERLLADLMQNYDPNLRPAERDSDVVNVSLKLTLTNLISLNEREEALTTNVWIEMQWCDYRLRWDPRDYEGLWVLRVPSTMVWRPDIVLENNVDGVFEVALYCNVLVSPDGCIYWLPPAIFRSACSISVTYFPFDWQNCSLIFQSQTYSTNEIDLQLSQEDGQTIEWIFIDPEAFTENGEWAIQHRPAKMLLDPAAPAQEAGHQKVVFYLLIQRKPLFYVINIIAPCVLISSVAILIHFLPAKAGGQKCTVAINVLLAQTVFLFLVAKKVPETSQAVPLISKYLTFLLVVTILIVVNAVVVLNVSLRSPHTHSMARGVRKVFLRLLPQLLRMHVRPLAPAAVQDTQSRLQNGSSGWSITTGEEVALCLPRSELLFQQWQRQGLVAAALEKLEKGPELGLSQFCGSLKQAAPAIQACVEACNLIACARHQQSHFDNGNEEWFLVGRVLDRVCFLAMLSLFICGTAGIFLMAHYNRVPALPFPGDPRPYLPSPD
Sequence of CNS nicotinic receptors (P09483 31-630): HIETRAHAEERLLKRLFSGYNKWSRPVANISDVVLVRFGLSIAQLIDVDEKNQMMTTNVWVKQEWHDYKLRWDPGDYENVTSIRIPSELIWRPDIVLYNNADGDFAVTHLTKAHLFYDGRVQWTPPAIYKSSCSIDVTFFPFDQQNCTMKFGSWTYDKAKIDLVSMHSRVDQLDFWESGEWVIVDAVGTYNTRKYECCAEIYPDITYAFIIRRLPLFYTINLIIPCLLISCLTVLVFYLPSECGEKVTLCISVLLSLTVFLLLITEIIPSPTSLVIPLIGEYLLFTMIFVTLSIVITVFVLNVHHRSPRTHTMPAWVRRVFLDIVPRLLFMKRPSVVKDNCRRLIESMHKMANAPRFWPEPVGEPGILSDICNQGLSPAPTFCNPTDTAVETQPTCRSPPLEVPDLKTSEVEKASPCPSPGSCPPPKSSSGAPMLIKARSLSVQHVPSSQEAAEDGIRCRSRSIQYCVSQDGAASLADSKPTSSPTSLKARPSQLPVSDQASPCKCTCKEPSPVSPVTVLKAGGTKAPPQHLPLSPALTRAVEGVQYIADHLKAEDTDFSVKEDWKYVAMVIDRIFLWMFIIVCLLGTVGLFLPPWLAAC
Sequence of CNS nicotinic receptors (P12390 25-500): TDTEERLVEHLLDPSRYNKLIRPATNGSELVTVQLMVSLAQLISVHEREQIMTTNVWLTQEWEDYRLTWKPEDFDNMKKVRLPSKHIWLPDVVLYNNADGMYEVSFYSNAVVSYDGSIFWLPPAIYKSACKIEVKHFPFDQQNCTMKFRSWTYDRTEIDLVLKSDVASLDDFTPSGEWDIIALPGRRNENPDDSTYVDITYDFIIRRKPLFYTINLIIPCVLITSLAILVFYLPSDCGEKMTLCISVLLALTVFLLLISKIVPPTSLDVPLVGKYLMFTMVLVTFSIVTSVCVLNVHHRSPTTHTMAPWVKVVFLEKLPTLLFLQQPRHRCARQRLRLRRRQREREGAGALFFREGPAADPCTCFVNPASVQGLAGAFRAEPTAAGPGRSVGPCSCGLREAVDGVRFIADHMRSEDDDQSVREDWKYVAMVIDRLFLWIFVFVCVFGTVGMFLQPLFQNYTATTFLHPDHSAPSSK

| Compound | pEC50 (nicotinic receptors) | Emax at ganglionic-type receptors [3] | pEC50 [1] | Emax [1, 4] [%] | Emax (Rat brain synaptosomes) [%] | Emax [2] [%] | Emax (nicotinic receptors; [5]) [%] | also measured |
| --- | --- | --- | --- | --- | --- | --- | --- | --- |
| CNCC/C=C/c1cnc(N)c([N+](=O)[O-])c1 [Sample No. 1, (3E)-N-methyl-4-[3-(5-nitro-6-aminopyridin)yl]-3-buten-1-amine] | 4.59 | 11% and 16% | – | – | – | – | – | pKi (CNS nicotinic receptors): 8.52; Emax for dopamine release [1, 4]: 0%; neurotransmitter release Emax (Rat brain synaptosomes): 33%; Emax in the rubidium ion flux assay (nicotinic receptors; [5]): 22%; Emax at muscle-type receptors [2, 6]: 10% and 11% |
| CNCC/C=C/c1cncc(C(=O)NCc2ccccc2)c1 [Sample No. 2, (3E)-N-methyl-N-[3-(5-(N-benzylcarboxamido)pyridin)yl]-3-buten-1-amine] | – | – | 4.00 | 12 | – | – | – | – |
| CN[C@@H](C)C/C=C/c1cc(OC(C)C)c[n+]([O-])c1 [Sample No. 5] | – | 8% | – | – | 19 | 7 | – | – |
| CNCC/C=C/c1cncc(OCC(C)C)c1 [Sample No. 6, (3E)-N-methyl-4-(3-(5-isobutoxypyridin)yl)-3-buten-1-amine hemigalactarate] | 6.00 | 13% | 4.82 | 25 | – | 6 | 15 | – |
| CNC(C)CC=Cc1ccc[n+]([O-])c1 (centres unmarked) [Sample No. 8, (4E)-N-methyl-5-(3-(1-oxopyridin)yl)-4-penten-2-amine] | – | 8% | – | – | 9 | 0 | – | – |
| CCSc1cncc(/C=C/CCNC)c1 [Sample No. 9, (3E)-N-methyl-4-(3-(5-ethylthiopyridin)yl)-3-buten-1-amine hemigalactarate] | 6.72 | 22% | 6.06 | 39 | – | 7 | 40 | – |
| CNC(C)CC=Cc1cncc(C(F)(F)F)c1 (centres unmarked) [Sample No. 10, (4E)-N-methyl-5-(3-(5-trifluoromethylpyridin)yl)-4-penten-2-amine] | 4.00 | 0% | – | – | 50 | 0 | 0 | – |
| CC(N)CC=Cc1cncc(OC(C)C)c1 (centres unmarked) [Sample No. 12, (4E)-5-(3-(5-isopropoxypyridin)yl)-4-penten-2-amine hemigalactarate] | – | 5% | – | – | 32 | – | – | Emax at 100 µM [2, 6]: 13% |
| CNC(C)CC=Cc1cncc(O)c1 (centres unmarked) [Sample No. 13, (4E)-N-methyl-5-(3-(5-hydroxypyridin)yl)-4-penten-2-amine sesquioxalate] | – | 12% | – | – | 80 | 21 | – | – |
